The target in experiment [1] is T1, human RNase 5 (RN5_Human) (Homo sapiens, UniProt P03950).
T1 construct: made in house; host or cells: Escherichia coli
The experiment in a line: NMR chemical shift titration, ligand binding to human RNase 5. As to conditions: 298 K, 15 mM sodium acetate pH 5.0, ± standard deviation of the fit. The text has this: (§1) The pH was carefully monitored throughout the experiments and readjusted with Tris-base or acetic acid if necessary. Ligands 3′-UMP (Chemical Impex Intl Inc., Wood Dale, IL, USA) and 5′-AMP (BioBasic Inc., Markham, ON Canada) were purchased commercially and dissolved in the same buffer as the protein. ^1H-^15N sensitivity-enhanced HSQC experiments were acquired at 800 MHz (18.8 T) using spectral widths (points) of 2025 (160) and 8000 Hz (1024) in the ω1 and ω2 dimensions, respectively. Titration experiments were performed for each ligand with enzyme:ligand molar ratios up to 1:12 (1:12), 1:18 (1:18), 1:24 (1:18), 1:30 (1:18) and 1:18 (1:30) for the 3′-UMP- (5′-AMP-) bound states of bovine RNase A and human RNases 2, 3, 4, and 5, respectively.
(§2) The equilibrium dissociation constant (Kd) was calculated by plotting weighted average chemical shift differences (Δδobs) as a function of ligand concentration and fitting the data using the following equation: […]
(§3) The Kd was estimated by simultaneously fitting the data of all residues affected by ligand binding (Williamson, [2013]). We note that Δδmax is a fitted parameter and not an experimentally measured one. […] Chemical shift perturbations (Δδobs) were calculated as the difference in the weighted average chemical shift of the ligand-bound (5′-AMP and 3′-UMP) and apo states, as shown below. […]

Experiment [2] addresses T2, human RNase 4 (RN4_Human) (Homo sapiens, UniProt P34096).
T2 construct: made in house; host or cells: Escherichia coli
T2 sequence (P34096 29-147): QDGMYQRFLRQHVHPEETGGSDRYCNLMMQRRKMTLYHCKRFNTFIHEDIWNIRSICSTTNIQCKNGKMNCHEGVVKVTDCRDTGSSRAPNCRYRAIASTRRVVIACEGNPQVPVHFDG
As to the kind of experiment: NMR chemical shift titration, ligand binding to human RNase 4. As to conditions: 298 K, 15 mM sodium acetate pH 5.0, ± standard deviation of the fit.
Description: as §1, §2, §3

The target in experiment [3] is T3, human RNase 3 (RN3_Human) (Homo sapiens, UniProt P12724).
T3 construct: made in house; host or cells: Escherichia coli
T3 sequence (P12724 28-160): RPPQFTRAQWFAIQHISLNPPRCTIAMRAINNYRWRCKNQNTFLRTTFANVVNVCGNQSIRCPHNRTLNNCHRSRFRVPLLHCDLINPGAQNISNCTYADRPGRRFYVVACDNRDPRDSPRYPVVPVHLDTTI
The experiment in a line: NMR chemical shift titration, ligand binding to human RNase 3.
Description: as §1
The equilibrium dissociation constant (Kd) was calculated by plotting weighted average chemical shift differences (Δδobs) as a function of ligand concentration and fitting the data using the following equation:
(1) Δδobs=Δδmax/2[P]t([P]t+[L]t/[P]t[P]t+Kd −([P]t+[L]t/[P]t[P]t+Kd)^2−4[L]t/[P]t[P]^2t)
The Kd was estimated by simultaneously fitting the data of all residues affected by ligand binding (Williamson, [2013]). We note that Δδmax is a fitted parameter and not an experimentally measured one. Uncertainties on these values are given by the standard deviations of the fits. Chemical shift perturbations (Δδobs) were calculated as the difference in the weighted average chemical shift of the ligand-bound (5′-AMP and 3′-UMP) and apo states, as shown below.
(2) Δδobs=(ΔδH)^2+(0.2ΔδN)^2/2

In experiment [4] the target is T4, human RNase 2 (RN2_Human) (Homo sapiens, UniProt P10153).
T4 construct: made in house; host or cells: Escherichia coli
The experiment in a line: NMR chemical shift titration, ligand binding to human RNase 2.
Description: as §1, §2, §3

In experiment [5] the target is bovine RNase A (RNA_Bovine). More on the design: method as in Gagné et al. ([2012]). As to conditions: ref Gagné et al. ([2012]); cited from earlier work.
The mark [6] stands for this setting: RN3_Human, 298 K, 15 mM sodium acetate pH 5.0, ± standard deviation of the fit, read-out: Kd.

Read-outs that look alike come from different tables or passages of the source.

A word on the Kd: it is the equilibrium constant for the complex coming apart.

T4 sequence (P10153 28-161): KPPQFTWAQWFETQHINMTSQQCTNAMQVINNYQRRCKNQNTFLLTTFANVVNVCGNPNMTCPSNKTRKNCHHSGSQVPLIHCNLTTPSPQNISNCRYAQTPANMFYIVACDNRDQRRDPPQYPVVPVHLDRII
T1 sequence (P03950 25-147): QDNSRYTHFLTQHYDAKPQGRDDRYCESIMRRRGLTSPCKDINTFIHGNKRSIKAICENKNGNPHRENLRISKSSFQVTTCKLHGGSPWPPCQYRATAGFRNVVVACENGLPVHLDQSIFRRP

Take `O=c1ccn([C@@H]2O[C@H](CO)[C@@H](OP(=O)(O)O)[C@H]2O)c(=O)[nH]1` [3′-UMP]: the Kd in experiment [1] was 1.94 mM; in experiment [2], 10.3 mM; in experiment [3] (setting [6]) it was 460 ± 100 µM; in experiment [4], 456 ± 10.6 µM; in experiment [5], 9.7 ± 0.9 µM.
Turning to `Nc1ncnc2c1ncn2[C@@H]1O[C@H](COP(=O)(O)O)[C@@H](O)[C@H]1O` [5′-AMP], the Kd is 300 ± 45 µM in experiment [3]; 540 ± 31.4 µM in experiment [4] (RN2_Human, 298 K, 15 mM sodium acetate pH 5.0, ± standard deviation of the fit, read-out: Kd); 124 ± 1 µM in experiment [5].
Take dATATA: the results for the dissociation constant (Kd) in experiment [2] and in experiment [3] (setting [6]) were 0.0729 ± 0.009 mM and 302 ± 31 µM, respectively.

The values are drawn from publication PMC6005897, “Ligand-Induced Variations in Structural and Dynamical Properties Within an Enzyme Superfamily” (Frontiers in Molecular Biosciences, 2018).
